In article PMC7906907, “Targeting STAT3 by a small molecule suppresses pancreatic cancer progression” (Oncogene, 2021):

How the values were obtained:
[1] = tested on: normal cells (HPNE, HAF); assay: MTS proliferation assay, normal cells; type: cell-based; details: 48 h
Procedure: Fig. 4 N4 suppresses pancreatic cancer cell proliferation and migration and induces apoptosis. A Pancreatic cancer cells (CAPAN-2, PANC-1, MIAPACA-2, BXPC-3, HPAC, and CFPAC-1) and normal cells (HPNE, HAF) were incubated with the indicated concentration of N4 for 48 h. MTS assays were performed to detect the N4-mediated inhibition of cell proliferation. Data are shown as mean ± SD, *P < 0.05, **P < 0.01, ***P < 0.001, ****P < 0.0001, n.s. not significant by one-way ANOVA followed by multiple comparisons. B, C CAPAN-2, PANC-1, and MIAPACA-2 cells were treated with N4 (B) or C188-9 (C) for 7 days. The cells fixed and stained, and colony numbers were calculated. Experiments were carried out in triplicate with identical results obtained. […] Apoptotic cells were analyzed as described in Materials and Methods. […] In F, after 48 h transfection, transfected cells were seeded in 96-well plates, and cells were enumerated at day 1, day 2, and day 4, In G, different cells transfected with different siRNA were treated with the indicated concentrations of N4, and cell viability measured after a 48 h treatment. Data are expressed as mean ± SD, *P < 0.05, ***P < 0.001, n.s. not significant by one-way ANOVA followed by multiple comparisons. […] Data are expressed as mean ± SD, *P < 0.05, ***P < 0.001, n.s. not significant; Student’s t tests were performed. […]

[2] = biological target: T1, STAT3 dimerization (Homo sapiens, UniProt P40763); assay: STAT3 dimerization experiment (immunoprecipitation); type: cell-based; details: PANC-1 cells, 2 μM, with or without IL-6 stimulation
T1 construct: endogenous in cells; host or cells: PANC-1
Excerpt: Fig. 3 N4 interacts with the STAT3-SH2 domain and interferes with the STAT3-EGFR and STAT3-NF-κB interactions. […] C–E The binding between N4 and STAT3 was examined in (C) SPR and (D) MST experiments. His-STAT3^127-722 protein was purified and used to examine the affinity between STAT3 and N4. (E) The binding between N4 and STAT3^SH2 was confirmed in MST assays. STAT3-SH2 protein was purified and labeled. N4 was serially diluted and mixed with equal volumes of labeled STAT3^SH2 protein. The MST signal was measured, and the data were analyzed by MO analysis software. F, G The FLAG-tag and HA-tag STAT3 expression plasmid was transfected into 293 T cells, followed by the addition of the indicated concentrations of N4. After 24 h, cells were lysed, and immunoprecipitation experiments were performed as described in Materials and Methods. H N4 represses STAT3 dimerization in pancreatic cancer cells. I After a 24 h treatment with 2 μM N4, pancreatic cancer cells were stimulated with IL-6 for 30 min. Cell lysates were immunoprecipitated with STAT3 overnight. The precipitates were washed, suspended in non-reducing sample buffer, and boiled for 10 min. The indicated antibodies were used for western blot assays. […]
Co-IP was performed as previously described. […] After overnight incubation, the precipitates were washed and analyzed using western blotting.

[3] = biological target: T2, STAT3^127–722 protein (Homo sapiens, UniProt P40763); assay: Surface plasmon resonance (SPR) assay; type: binding
T2 construct: made in house
Procedure: Surface plasmon resonance (SPR) analysis was conducted with a Biacore T200 instrument (GE Healthcare) with CM5 sensor chip (GE Healthcare). To test N4 binding of STAT3^127–722 protein, serially diluted concentrations of N4 were injected into the flow system. Experiments were conducted using phosphate buffered saline (PBS) and the analyte was injected at the flow rate of 30 μL/min. The association time was 60 s and the dissociation time was 30 s. Since N4 was dissolved in PBS containing 5% dimethyl sulfoxide and a solvent correction assay was performed to adjust the results. STAT3^127–722 protein was immobilized on the sensor chip (CM5) using the amine-coupling method according to standard protocols. N4 or Stattic at various concentrations were injected into the flow system. […] The KD values were calculated with the kinetics and affinity analysis option of Biacore T200 plus evaluation software (version 3.0).

T2 sequence (P40763 127-722): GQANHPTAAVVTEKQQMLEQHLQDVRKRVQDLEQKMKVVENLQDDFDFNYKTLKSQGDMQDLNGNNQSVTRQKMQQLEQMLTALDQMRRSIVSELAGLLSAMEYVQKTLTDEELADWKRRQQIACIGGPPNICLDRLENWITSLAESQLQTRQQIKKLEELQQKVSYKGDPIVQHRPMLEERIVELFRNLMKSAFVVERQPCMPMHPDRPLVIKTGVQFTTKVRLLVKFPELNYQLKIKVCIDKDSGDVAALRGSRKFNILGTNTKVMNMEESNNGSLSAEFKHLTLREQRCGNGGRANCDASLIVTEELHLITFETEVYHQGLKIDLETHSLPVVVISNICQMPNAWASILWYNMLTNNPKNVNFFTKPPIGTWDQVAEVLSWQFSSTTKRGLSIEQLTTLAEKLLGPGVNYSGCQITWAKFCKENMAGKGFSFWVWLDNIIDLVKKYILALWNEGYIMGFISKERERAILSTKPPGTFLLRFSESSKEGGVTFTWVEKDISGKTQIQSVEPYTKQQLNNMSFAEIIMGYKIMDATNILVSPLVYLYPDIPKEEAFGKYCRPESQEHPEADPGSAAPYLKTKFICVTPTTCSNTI
T1 sequence (P40763 2-770 limits assumed): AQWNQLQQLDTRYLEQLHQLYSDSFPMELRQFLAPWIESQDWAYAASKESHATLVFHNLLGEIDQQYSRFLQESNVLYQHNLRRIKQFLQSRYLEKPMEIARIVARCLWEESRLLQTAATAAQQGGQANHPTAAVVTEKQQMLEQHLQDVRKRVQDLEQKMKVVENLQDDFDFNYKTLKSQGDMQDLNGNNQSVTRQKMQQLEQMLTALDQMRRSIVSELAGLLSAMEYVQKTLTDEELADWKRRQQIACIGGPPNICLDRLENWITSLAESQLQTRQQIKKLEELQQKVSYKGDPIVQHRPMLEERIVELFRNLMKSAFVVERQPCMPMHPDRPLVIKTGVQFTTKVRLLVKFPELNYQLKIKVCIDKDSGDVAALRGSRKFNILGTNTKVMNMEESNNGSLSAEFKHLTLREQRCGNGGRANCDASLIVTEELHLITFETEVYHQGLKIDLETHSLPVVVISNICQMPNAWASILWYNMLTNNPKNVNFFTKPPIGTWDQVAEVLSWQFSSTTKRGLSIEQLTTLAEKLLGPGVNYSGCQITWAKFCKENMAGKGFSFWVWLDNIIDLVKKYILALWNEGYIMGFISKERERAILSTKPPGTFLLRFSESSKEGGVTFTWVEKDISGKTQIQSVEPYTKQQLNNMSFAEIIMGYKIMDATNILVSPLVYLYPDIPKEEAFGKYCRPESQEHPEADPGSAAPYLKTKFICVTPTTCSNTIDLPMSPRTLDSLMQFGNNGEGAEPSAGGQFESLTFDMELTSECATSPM

For `COc1cc2c(cc1C(=O)Nc1cccc3cccnc13)CCC1C(C)(C)C(=O)C(C#N)=C[C@]21C` (stereo partly shown) [N4], the “effect on two normal cell types” value [1] was “no significant effect”, the STAT3 dimerization [2] was “efficiently decreased” and the Kd ([3]; SPR, STAT3^127–722 immobilized on CM5 chip, 25 °C) was 1.04 µM. The “improvement of binding affinities to STAT3 than Stattic” value ([3]; in FP and SPR experiments) was “approximately tenfold improvement”.
